Consider 14 molecules from patent EP4678638A1, “NEW E3 UBIQUITIN LIGASE LIGAND, PROTEIN DEGRADATION AGENT AND USE THEREOF” (priority 2023, dated 2024).

One assay relates to CCRF-CEM. Kind of assay: CCK-8 proliferation, CCRF-CEM. Type of assay: cell-based, Human. The conditions noted are these: Homo sapiens, CCRF-CEM; CCK-8; 96 hours; read-out: Inhibitory activity (IC50) on tumor cell proliferation, CCRF-CEM. The method, boiled down: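 CCK-8 viability readout; IC50 from growth-inhibition curve fitting. Cells plated, dosed 24h later with a 10-point series, top 10µM, 5-fold steps. Culture at 37°C, 5% CO2.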

A further assay addresses T1, FAK (Homo sapiens, UniProt Q05397).
T1 construct: evaluate the effects of the compounds of the present disclosure on the expression of target proteins in cells; endogenous in cells
The assay can be described thus: Western blot degradation of FAK. The conditions noted are these: Table D7. Type of assay: cell-based. As to the method: Conventional Western blot assay was performed to evaluate the effects of the compounds of the present disclosure on the expression of target proteins in cells.
(1) Cell Seeding and Protein Harvesting: The selected cells were processed according to the cell seeding procedure and protein harvesting procedure in Table III-2. Table III-2 Cell Seeding and Protein Harvesting Procedures
(2) To the collected supernatant, 5X SDS sample loading buffer was added, followed by denaturation at 95°C for 5 minutes. The denatured samples were then separated by SDS-PAGE electrophoresis on a polyacrylamide gel. Proteins were transferred to a nitrocellulose membrane (0.45 µm NC membrane), blocked with blocking buffer at room temperature for 1 hour, and subjected to antibody incubation and development procedures according to the antibody manufacturer's instructions (Cell Signaling Technology).
Half-Maximal Degradation Concentration value (the drug concentration required for degrading proteins by 50%, abbreviated as DC50) reads method: comparing the grayscale values of Western blot bands from drug-treated samples with those from blank DMSO-treated controls, and identifying the drug concentration range at which the grayscale value is half that of the DMSO-treated control bands.
DC50 values can be calculated using ImageJ software to measure grayscale values of Western blot bands from drug-treated samples. The concentration-response curve is fitted to estimate the drug concentration corresponding to half the grayscale value.
Target protein remaining (%) refers to the percentage of target protein remaining in hPBMC cells after treatment with protein degrader compounds.
Calculation method for target protein remaining (%): Use ImageJ software to measure grayscale values of Western blot bands from drug (protein degrader)-treated samples. The grayscale value of drug-treated bands is divided by that of internal control protein bands, and the resulting quotient is normalized to obtain the relative percentage of remaining target protein after protein degrader treatment.
Target protein degradation rate (%) = 100% - target protein remaining (%).

The target of assay [1] is T2, human Cereblon WT GST-tagged protein (Homo sapiens, UniProt Q96SW2).
T2 construct: purchased CISBIO 64BDCRBNPEH
T2 sequence (Q96SW2 whole entry): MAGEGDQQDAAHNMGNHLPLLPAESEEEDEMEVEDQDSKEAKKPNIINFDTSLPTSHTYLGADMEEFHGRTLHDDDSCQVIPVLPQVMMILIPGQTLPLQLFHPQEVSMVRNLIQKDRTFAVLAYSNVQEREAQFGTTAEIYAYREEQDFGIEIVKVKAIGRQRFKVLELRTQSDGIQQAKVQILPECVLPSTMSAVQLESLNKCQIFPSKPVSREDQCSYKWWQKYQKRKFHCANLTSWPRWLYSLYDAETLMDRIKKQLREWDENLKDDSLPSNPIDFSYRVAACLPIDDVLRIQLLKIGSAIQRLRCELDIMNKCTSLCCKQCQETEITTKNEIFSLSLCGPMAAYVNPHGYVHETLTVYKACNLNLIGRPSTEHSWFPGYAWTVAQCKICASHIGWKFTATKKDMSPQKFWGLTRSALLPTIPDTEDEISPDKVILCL
Kind of assay: CRBN binding, HTRF (CEREBLON BINDING kit). The conditions noted are these: Table II-2, CRBN binding screening, HTRF; for inhibition at 0.5 µM: read-out: Inhibition rate (%) at 0.5µM; for inhibition at 2 µM: read-out: Inhibition rate (%) at 2 µM. The method, boiled down: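 Competitive HTRF: GST-tagged human WT Cereblon mixed with compound, Thalidomide-Re tracer and GST Eu antibody, incubated 3 h at room temperature. Signals read at 620 and 665 nm.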
Background: TR-FRET usually uses a lanthanide donor and a delayed reading to cut background.

T1 sequence (Q05397 whole entry, species assumed): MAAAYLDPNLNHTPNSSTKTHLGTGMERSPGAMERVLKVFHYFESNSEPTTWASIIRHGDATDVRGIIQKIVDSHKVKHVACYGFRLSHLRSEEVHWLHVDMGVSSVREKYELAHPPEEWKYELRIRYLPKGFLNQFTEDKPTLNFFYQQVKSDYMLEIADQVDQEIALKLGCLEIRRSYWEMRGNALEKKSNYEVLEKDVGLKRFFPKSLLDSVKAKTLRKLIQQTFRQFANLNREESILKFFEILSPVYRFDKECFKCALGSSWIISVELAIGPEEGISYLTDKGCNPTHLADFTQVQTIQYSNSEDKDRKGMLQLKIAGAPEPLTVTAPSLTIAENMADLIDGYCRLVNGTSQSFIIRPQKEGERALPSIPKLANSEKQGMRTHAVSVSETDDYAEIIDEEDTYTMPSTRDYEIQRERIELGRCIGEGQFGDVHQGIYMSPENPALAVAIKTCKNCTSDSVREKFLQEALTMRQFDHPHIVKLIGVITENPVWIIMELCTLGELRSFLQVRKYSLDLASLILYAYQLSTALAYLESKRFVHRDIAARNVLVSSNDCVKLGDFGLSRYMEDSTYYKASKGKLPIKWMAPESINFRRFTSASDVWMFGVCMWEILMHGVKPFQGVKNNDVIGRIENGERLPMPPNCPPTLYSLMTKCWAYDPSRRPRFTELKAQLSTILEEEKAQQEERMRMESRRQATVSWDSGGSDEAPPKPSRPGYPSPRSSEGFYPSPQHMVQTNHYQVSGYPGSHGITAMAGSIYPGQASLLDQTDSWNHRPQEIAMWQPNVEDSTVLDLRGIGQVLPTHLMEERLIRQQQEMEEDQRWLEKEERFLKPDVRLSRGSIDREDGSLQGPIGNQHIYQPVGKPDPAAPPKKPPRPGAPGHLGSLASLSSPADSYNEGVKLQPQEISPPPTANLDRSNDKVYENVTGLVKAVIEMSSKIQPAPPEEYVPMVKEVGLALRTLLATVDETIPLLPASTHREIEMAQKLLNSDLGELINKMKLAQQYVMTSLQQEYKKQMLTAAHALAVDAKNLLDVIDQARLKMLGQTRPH

With `CNC(=O)c1ccccc1Nc1cc(Nc2ccc(N3CCC(N4CCN(Cc5ccc(C6CCC(=O)NC6=O)cc5)CC4)CC3)cc2OC)ncc1C(F)(F)F` (stereo not drawn) [GT-03599, 2-((2-((4-(4-(4-(4-(2,6-dioxopiperidin-3-yl)benzyl)piperazin-1-yl)piperidin-1-yl)-2-methoxyphenyl)amino)-5-(trifluoromethyl)pyridin-4-yl)amino)-N-methylbenzamide], the IC50 in the assay with CCRF-CEM lay within 100 to 500 nM. Also, on FAK, the “Degradation of substrate protein FAK (substrate protein remaining %)” value (shortened to “Degradation … (substrate protein remaining %)”) was “A (A is defined as 0% ≤ substrate protein remaining % ≤ 80%)”.
Broadly, the inhibition is how much of the control response was suppressed. Regarding `CNC(=O)c1ccccc1Nc1cc(Nc2cc(C)c(N3CCN(Cc4ccc(C5CCC(=O)NC5=O)cc4)CC3)cc2OC(C)C)ncc1C(F)(F)F` (stereo not drawn) [GT-03946, 2-((2-((4-(4-(4-(2,6-dioxopiperidin-3-yl)benzyl)piperazin-1-yl)-2-isopropoxy-5-methylphenyl)amino)-5-(trifluoromethyl)pyridin-4-yl)amino)-N-methylbenzamide], the “Degradation … (substrate protein remaining %)” value at FAK is reported as “A (A is defined as 0% ≤ substrate protein remaining % ≤ 80%)”. In addition, in assay [1], the inhibition at 0.5 µM fell in the range of 30 to 40% and the inhibition at 2 µM fell in the range of 53 to 60%.
As to `COc1cc(C(=O)NC2CCN(Cc3ccc(C4CCC(=O)NC4=O)cc3)CC2)c(F)cc1Nc1ncc(C(F)(F)F)c(Oc2cccc3c2C(=O)N(C)C3)n1` (stereo not drawn) [GT-04034, N-(1-(4-(2,6-dioxopiperidin-3-yl)benzyl)piperidin-4-yl)-2-fluoro-5-methoxy-4-((4-((2-methyl-3-oxoisoindolin-4-yl)oxy)-5-(trifluoromethyl)pyrimidin-2-yl)amino)benzamide], the “Degradation … (substrate protein remaining %)” value on FAK was “A (A is defined as 0% ≤ substrate protein remaining % ≤ 80%)”. In assay [1], the inhibition at 0.5 µM was in the range of 53 to 60% and the inhibition at 2 µM fell in the range of 80 to 100%.
On to `CNC(=O)c1ccccc1Nc1cc(Nc2cc(C)c(N3CCC(N(C)Cc4ccc(C5CCC(=O)NC5=O)c(F)c4)CC3)cc2OC(C)C)ncc1C(F)(F)F` (stereo not drawn) [GT-04095, 2-((2-((4-(4-((4-(2,6-dioxopiperidin-3-yl)-3-fluorobenzyl)(methyl)amino)piperidin-1-yl)-2-isopropoxy-5-methylphenyl)amino)-5-(trifluoromethyl)pyridin-4-yl)amino)-N-methylbenzamide], for which the “Degradation … (substrate protein remaining %)” value on FAK is “A (A is defined as 0% ≤ substrate protein remaining % ≤ 80%)”. Also, in assay [1], the inhibition at 0.5 µM lay within 20 to 30% and the inhibition at 2 µM lay within 60 to 80%.
As to `CNC(=O)c1ccccc1Nc1cc(Nc2ccc(N3CCC(N(C)Cc4ccc(N5CCC(=O)NC5=O)cc4)CC3)cc2OC)ncc1C(F)(F)F` [GT-07649, 2-((2-((4-(4-((4-(2,4-dioxotetrahydropyrimidin-1(2H)-yl)benzyl)(methyl)amino)piperidin-1-yl)-2-methoxyphenyl)amino)-5-(trifluoromethyl)pyridin-4-yl)amino)-N-methylbenzamide], at FAK, the “Degradation … (substrate protein remaining %)” value is “A (A is defined as 0% ≤ substrate protein remaining % ≤ 80%)”.
For `CNC(=O)c1ccccc1Nc1cc(Nc2ccc(N3CCC(N(C)Cc4cccc(N5CCC(=O)NC5=O)c4)CC3)cc2OC)ncc1C(F)(F)F` [GT-07650, 2-((2-((4-(4-((3-(2,4-dioxotetrahydropyrimidin-1(2H)-yl)benzyl)(methyl)amino)piperidin-1-yl)-2-methoxyphenyl)amino)-5-(trifluoromethyl)pyridin-4-yl)amino)-N-methylbenzamide], the “Degradation … (substrate protein remaining %)” value at FAK is reported as “A (A is defined as 0% ≤ substrate protein remaining % ≤ 80%)”.
Turning to `CNC(=O)c1ccccc1Nc1cc(Nc2ccc(N3CCC(N(C)Cc4cccc(NC5CCC(=O)NC5=O)c4)CC3)cc2OC)ncc1C(F)(F)F` (stereo not drawn) [GT-07652, 2-((2-((4-(4-((3-((2,6-dioxopiperidin-3-yl)amino)benzyl)(methyl)amino)piperidin-1-yl)-2-methoxyphenyl)amino)-5-(trifluoromethyl)pyridin-4-yl)amino)-N-methylbenzamide], the “Degradation … (substrate protein remaining %)” value at FAK is listed as “A (A is defined as 0% ≤ substrate protein remaining % ≤ 80%)”.
For `CNC(=O)c1ccccc1Nc1cc(Nc2ccc(N3CCC(N(C)Cc4ccnc(N5CCC(=O)NC5=O)c4)CC3)cc2OC)ncc1C(F)(F)F` [GT-07654, 2-((2-((4-(4-(((2-(2,4-dioxotetrahydropyrimidin-1(2H)-yl)pyridin-4-yl)methyl)(methyl)amino)piperidin-1-yl)-2-methoxyphenyl)amino)-5-(trifluoromethyl)pyridin-4-yl)amino)-N-methylbenzamide], the “Degradation … (substrate protein remaining %)” value on FAK is “A (A is defined as 0% ≤ substrate protein remaining % ≤ 80%)”.
Take `CNC(=O)c1ccccc1Nc1cc(Nc2ccc(N3CCC(N(C)Cc4ccc(C5CCC(=O)NC5=O)nc4)CC3)cc2OC)ncc1C(F)(F)F` (stereo not drawn) [GT-07657, 2-((2-((4-(4-(((6-(2,6-dioxopiperidin-3-yl)pyridin-3-yl)methyl)(methyl)amino)piperidin-1-yl)-2-methoxyphenyl)amino)-5-(trifluoromethyl)pyridin-4-yl)amino)-N-methylbenzamide]: the “Degradation … (substrate protein remaining %)” value on FAK is “A (A is defined as 0% ≤ substrate protein remaining % ≤ 80%)”.
Same read-out and setting: the entry for `CNC(=O)c1ccccc1Nc1cc(Nc2ccc(N3CCC(N(C)Cc4ccc(C5CCC(=O)NC5=O)cn4)CC3)cc2OC)ncc1C(F)(F)F` (stereo not drawn) [GT-07658, 2-((2-((4-(4-(((5-(2,6-dioxopiperidin-3-yl)pyridin-2-yl)methyl)(methyl)amino)piperidin-1-yl)-2-methoxyphenyl)amino)-5-(trifluoromethyl)pyridin-4-yl)amino)-N-methylbenzamide] is “A (A is defined as 0% ≤ substrate protein remaining % ≤ 80%)”; for `CNC(=O)c1ccccc1Nc1cc(Nc2cc(C)c(C3CCN(Cc4ccc(N5CCC(=O)NC5=O)nc4)CC3)cc2OC(C)C)ncc1C(F)(F)F` [GT-07670, 2-((2-((4-(1-((6-(2,4-dioxotetrahydropyrimidin-1(2H)-yl)pyridin-3-yl)methyl)piperidin-4-yl)-2-isopropoxy-5-methylphenyl)amino)-5-(trifluoromethyl)pyridin-4-yl)amino)-N-methylbenzamide] it is “A (A is defined as 0% ≤ substrate protein remaining % ≤ 80%)”.
On the same count and under the same terms, as for `CNC(=O)c1ccccc1Nc1cc(Nc2cc(C)c(C3CCN(Cc4cncc(N5CCC(=O)NC5=O)c4)CC3)cc2OC(C)C)ncc1C(F)(F)F` [GT-07674, 2-((2-((4-(1-((5-(2,4-dioxotetrahydropyrimidin-1(2H)-yl)pyridin-3-yl)methyl)piperidin-4-yl)-2-isopropoxy-5-methylphenyl)amino)-5-(trifluoromethyl)pyridin-4-yl)amino)-N-methylbenzamide], the entry is “A (A is defined as 0% ≤ substrate protein remaining % ≤ 80%)”.
The same measure, in the same setting: as for `CNC(=O)c1ccccc1Nc1cc(Nc2cc(C)c(C3CCN(Cc4cncc(C5CCC(=O)NC5=O)c4)CC3)cc2OC(C)C)ncc1C(F)(F)F` (stereo not drawn) [GT-07678, 2-((2-((4-(1-((5-(2,6-dioxopiperidin-3-yl)pyridin-3-yl)methyl)piperidin-4-yl)-2-isopropoxy-5-methylphenyl)amino)-5-(trifluoromethyl)pyridin-4-yl)amino)-N-methylbenzamide], the entry is “A (A is defined as 0% ≤ substrate protein remaining % ≤ 80%)”; as for `CNC(=O)c1ccccc1Nc1cc(Nc2cc(C)c(C3CCN(Cc4cnc(N5CCC(=O)NC5=O)cn4)CC3)cc2OC(C)C)ncc1C(F)(F)F` [GT-07680, 2-((2-((4-(1-((5-(2,4-dioxotetrahydropyrimidin-1(2H)-yl)pyrazin-2-yl)methyl)piperidin-4-yl)-2-isopropoxy-5-methylphenyl)amino)-5-(trifluoromethyl)pyridin-4-yl)amino)-N-methylbenzamide], “A (A is defined as 0% ≤ substrate protein remaining % ≤ 80%)”.
